From patent US20190106454A1, “COMPOUNDS LINKED WITH A SACCHARIDE METAL COMPLEX AND USES THEREOF” (FRED HUTCHINSON CANCER RESEARCH CENTER, priority 2016, published 2019)
Entries after “also recorded” stand apart in the source; their conditions may differ. Blank lines part the entries; values can stand above or below the compound they belong to.

Tests used:
heme oxygenase 1 (HO-1) [1] = test: Induction of HO-1 mRNA (RT-PCR) and protein (ELISA) in renal cortex and plasma; assay type: in vivo, mice; details: for renal cortical HO-1 protein levels / increase in renal cortical HO-1 levels over baseline: ELISA; for renal cortical HO-1 mRNA induction / increase in renal cortical HO-1 levels over baseline: 1 umole; for renal cortical HO-1 mRNA induction: RT-PCR (FIG. 11)
From the text: (§1) Methods. Male CD-1 mice (25-40 grams) Charles River, Wilmington, Mass.) were used for all experiments. They were housed under standard vivarium conditions with free food and water access. All experiments were approved by the Fred Hutchinson Cancer Research Center IACUC in accordance with NIH guidelines.
Effects of FeS, SnPP, and B12 on renal cortical induction of heme oxygenase 1 (HO-1). The following experiments assessed the effects of FeS, SnPP, and B12 on the possible induction of the cytoprotective protein HO-1. To this end, mice were injected with each of these agents, as noted above. Either 4 or 18 hrs later, they were anesthetized and the kidneys were removed through a midline abdominal incision. The renal cortices were dissected on ice and then extracted for protein and mRNA. The samples were then assayed for HO-1 protein by ELISA, and HO-1 mRNA by RT-PCR, factored by GAPDH levels. Five normal mice provided control values. […]

[2] = test system: kidney dysfunction in glycerol model rhabdomyolysis; details: blocking HO with competitive inhibitor; cited from earlier work
Ferritin heavy (Fhc) = test: Ferritin heavy chain Western blotting of renal cortex; assay type: in vivo, mice; details: 18 hr post treatment, Western blot band densitometry
Protocol: Ferritin heavy (Fhc) expression in renal cortex. HO-1 activity leads to increased Fhc expression. […] Because Fe sucrose also induces Fhc expression, the potential impact of SnPP treatment on this response was assessed (18 hrs post 1 mg FeS±concomitant SnPP treatment (n, 4 each)).

renal injury in rats = details: cited from earlier work
[3] = test system: maleate-induced AKI in mice; test: Maleate model of AKI; assay type: in vivo; details: IV pre-treatment 18 hrs before IP Na maleate 800 mg/Kg, read 18 hrs post maleate
From the text: as §1
Effects of Fe sucrose (FeS)/tin protoporphyrin (SnPP) on AKI severity. Maleate model of AKI. When injected into rodents, maleate undergoes relatively selective proximal tubule cell uptake via organic anion transporters. Once intracellular accumulation occurs, maleate is a preferred substrate for succinyl-CoA:3-oxoacid CoA transferase. […] Ample levels of CoA are essential for fatty acid “activation”, allowing for their subsequent metabolism through the Krebs cycle, yielding ATP. In the absence of this process, proximal tubule ATP depletion and cell injury result. Additionally, maleate conjugates the sulfhydryl group of glutathione (GSH), culminating in GSH depletion and potential oxidant tubular stress.
The following experiment tested whether FeS, SnPP or combined FeS+SnPP can mitigate this form of acute kidney injury (AKI). Twenty seven mice were subjected to 200 μL IV tail injections of one of the following: 1) vehicle (phosphate buffered saline, PBS; n, 10); 2) 1 mg FeS (American Regent (Shirley, N.Y.; n, 3); 3) 1 μmole SnPP (Frontier Scientific, Logan, Utah; n 7), or FeS+SnPP, n, 7). Eighteen hrs later, all mice received an IP injection of Na maleate (800 mg/Kg; in 500 ul of PBS). Eighteen hrs later, the mice were deeply anesthetized with pentobarbital (50 mg/Kg IP), the abdominal cavities were opened, and blood samples were obtained from the abdominal vena cava. The severity of kidney injury was assessed by determining plasma blood urea nitrogen (BUN) and plasma creatinine (PCr) concentrations.
Maleate model of AKI. Mice received tail vein injections of either combination of FeS+B12 or vehicle (n, 6 per group). Eighteen hrs later they received IP maleate injections, as noted above. The severity of AKI was determined 18 hrs post maleate injection by terminal BUN and PCr assessments.

haptoglobin = test: Induction of haptoglobin mRNA and protein in renal cortex and plasma; assay type: in vivo, mice; details: 1 umole; for renal cortical haptoglobin mRNA induction: 4 hrs post injection, RT-PCR (FIG. 11)
Protocol: MesP up-regulates Nrf2 sensitive genes. Mice are injected MesP (0.1-2.5 umoles/mouse) or with a MesP vehicle. At either 4 or 18 hrs, the mice are deeply anesthetized with pentobarbital and the kidneys are removed through a midline abdominal incision. The renal cortices are dissected on ice, extracted for protein and mRNA, and assayed for HO-1 and haptoglobin protein and mRNA levels by ELISA and competitive RT-PCR, respectively. In this regard, both HO-1 and haptoglobin are Nrf2 sensitive genes. An increase in HO-1 and haptoglobin mRNA and protein levels at 4 hrs and 18 hrs post MesP administration, respectively, is measured to confirm MesP, like SnPP, induces Nrf2 signaling.

[4] = test system: renal ischemia-reperfusion (IRI) induced AKI in mice; test: Renal ischemic-reperfusion injury (IRI) model of AKI; assay type: in vivo; details: 1 umole 18 hrs before 22 min bilateral ischemic injury
Protocol: as §1
Renal ischemic—reperfusion injury (IRI) model of AKI. The following experiment assessed whether combination FeS+SnPP can mitigate the renal artery occlusion model of AKI. Mice received 200 μl tail vein injections of either PBS (n, 9) or FeS+SnPP (n, 8), as noted above. Eighteen hrs later, the mice were deeply anesthetized with pentobarbital (40-50 mg/Kg IP), the abdominal cavities were opened, the renal pedicles were identified and both were occluded with microvascular clamps. Body temperature was maintained at 36-37° C. throughout. Following 22 minutes of bilateral renal ischemia, the clamps were removed, uniform reperfusion was visually confirmed by the reappearance of a normal renal color (loss of tissue cyanosis), and then the abdominal cavities were closed in two layers with silk suture. […] The severity of renal injury was determined by BUN and PCr concentrations.
Protection against acute kidney injury. […] AKI severity are determined by degrees of BUN and plasma creatinine increases.

heme oxygenase 1 (HO-1) [5] = test: Induction of HO-1 mRNA (RT-PCR) and protein (ELISA) in renal cortex and plasma; assay type: in vivo, mice; details: 1 umole, 18 hrs post injection

renal cortical HO-1 protein levels (heme oxygenase 1 (HO-1) [1]; 4 hrs post IV injection): marked HO-1 protein increases | renal cortical HO-1 protein levels (heme oxygenase 1 (HO-1) [1]; 18 hrs post IV injection): persists
Compound: cyanocobalamin [B12]

renal cortical HO-1 mRNA induction (heme oxygenase 1 (HO-1) [1]; 4 hrs post injection): raised
Compound: C=Cc1c2[n-]c(c1C)/C=c1\[n-]/c(c(C)c1C=C)=C\c1[n-]c(c(CCC(=O)O)c1C)/C=c1\[n-]c(c(C)c1CCC(=O)O)=C2.[Sn+4] [SnPP, tin protoporphyrin]
kidney dysfunction [2]: exacerbated kidney dysfunction | increase in Fhc expression over control values (Ferritin heavy (Fhc)): 24% | fractional excretion of sodium (renal injury in rats; day 2 after cisplatin, rats): increased | renal blood flow rates (renal injury in rats; day 2 after cisplatin, rats): reduced | renal vascular resistance (renal injury in rats; day 2 after cisplatin, rats): increased | inulin clearances (renal injury in rats; day 5): lower | serum creatinine values (renal injury in rats; days 3 through 5): higher | renal injury (renal injury in rats; pretreatment): exacerbated renal injury | severity of renal injury (BUN and PCr) [3]: Neither SnPP alone nor FeS alone significantly altered the severity of renal injury | severity of renal injury (BUN and PCr) ([3]; listed as Sn-protoporphyrin): Neither Sn-protoporphyrin alone nor iron-sucrose alone significantly altered the severity of renal injury | renal cortical haptoglobin mRNA induction (haptoglobin): raised

Compound: Fe sucrose [FeS]
renal cortical HO-1 protein levels (heme oxygenase 1 (HO-1) [1]; 4 hrs post IV injection): marked HO-1 protein increases | renal cortical HO-1 protein levels (heme oxygenase 1 (HO-1) [1]; 18 hrs post IV injection): remained elevated | renal cortical HO-1 protein levels (heme oxygenase 1 (HO-1) [1]; 18 hrs post IV injection, listed as iron-sucrose): persists; also recorded: remained elevated | increase in Fhc expression over control values (Ferritin heavy (Fhc)): 1-4% | severity of renal injury (BUN and PCr) [3]: Neither SnPP alone nor FeS alone significantly altered the severity of renal injury | severity of renal injury (BUN and PCr) ([3]; listed as iron-sucrose): Neither Sn-protoporphyrin alone nor iron-sucrose alone significantly altered the severity of renal injury

increase in renal cortical HO-1 levels over baseline (heme oxygenase 1 (HO-1) [1]; 4 hrs post injection): 3 fold | renal cortical HO-1 mRNA induction (heme oxygenase 1 (HO-1) [1]; 4 hrs post injection): raised | increase in renal cortical HO-1 levels over baseline (heme oxygenase 1 (HO-1) [1]; 18 hrs post injection): 5 fold | rise in plasma HO-1 levels (heme oxygenase 1 (HO-1) [5]): 15 fold
Compound: tin mesoporphyrin [SnMeP]
ischemic damage (BUN and plasma creatinine concentrations) [4]: lessening of ischemic damage | plasma haptoglobin levels (haptoglobin; 4 and 18 hrs post injection): stepwise increases | renal cortical haptoglobin levels (haptoglobin; 4 and 18 hrs post injection): stepwise increases | renal cortical haptoglobin mRNA induction (haptoglobin): raised
